Values of other authors as cited in patent US20050267140A1, “Method for treating abnormal cell growth” (priority 2004, published 2005).
Read-outs that look alike come from different tables or passages of the source.

System: previously untreated patients with metastatic colorectal cancer
[1] = capecitabine treatment arms, 2500 mg/m^2/day for 14 days every 3 weeks

Grade 3-4 diarrhea [1]: 14%
Grade 3-4 hand-foot syndrome [1]: 17%
Structure (SMILES): CCCCCOC(=O)Nc1nc(=O)n([C@@H]2O[C@H](C)[C@@H](O)[C@H]2O)cc1F [capecitabine, 5′-deoxy-5-fluoro-N-[(pentyloxy)-carbonyl]-cytidine]
Median survival (European trial (N=602), p=0.30): 13.3 months
Median survival (US trial (N=605), p=0.24): 12.5 months
Overall response rate (first of the 2 trials as listed ('respectively'), p=0.014): 21%
Overall response rate (second of the 2 trials as listed ('respectively'), p=0.03): 21%
